From ChEMBL document CHEMBL1201862, “PubChem BioAssay data set” (2004)
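Results reflect a 48-hour exposure of cells in 96-well plates to compound at five concentrations. Abbreviation: GI50, concentration required for 50% inhibition of growth.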 Activity calls are given as the source filed them. No stated cut-off is given here; in the data, active = GI50 up to about 1.1 µM and inactive = higher.

Assays:
Assay in all cases: inhibition of tumour cell growth, NCI panel, 48 h
786-0 = test system: 786-0
A549 = test system: A549
ACHN = test system: ACHN
HCC 2998 = test system: HCC 2998
HCT-116 = test system: HCT-116
M14 = test system: M14
NCI-H23 = test system: NCI-H23
OVCAR-5 = test system: OVCAR-5
SK-MEL-2 = test system: SK-MEL-2
SNB-19 = test system: SNB-19
SNB-75 = test system: SNB-75
SW-620 = test system: SW-620
U-251 = test system: U-251
UACC-257 = test system: UACC-257
UACC-62 = test system: UACC-62

| SMILES | GI50 (786-0) | GI50 (A549) | GI50 (ACHN) | GI50 (HCC 2998) | GI50 (HCT-116) | GI50 (M14) | GI50 (NCI-H23) | GI50 (OVCAR-5) | GI50 (SK-MEL-2) | GI50 (SNB-19) | GI50 (SNB-75) | GI50 (SW-620) | GI50 (U-251) | GI50 (UACC-257) | GI50 (UACC-62) |
| --- | --- | --- | --- | --- | --- | --- | --- | --- | --- | --- | --- | --- | --- | --- | --- |
| CCOCN1COCN(C)C1=O | > 100 µM (inactive) | > 100 µM (inactive) | > 100 µM (inactive) | > 100 µM (inactive) | > 100 µM (inactive) | > 100 µM (inactive) | > 100 µM (inactive) | > 100 µM (inactive) | > 100 µM (inactive) | > 100 µM (inactive) | > 100 µM (inactive) | > 100 µM (inactive) | > 100 µM (inactive) | > 100 µM (inactive) | > 100 µM (inactive) |
| Cc1ccc2c(CC(=O)O)cc(=O)oc2c1 | > 100 µM (inactive) | > 100 µM (inactive) | > 100 µM (inactive) | > 100 µM (inactive) | > 100 µM (inactive) | > 100 µM (inactive) | > 100 µM (inactive) | > 100 µM (inactive) | > 100 µM (inactive) | > 100 µM (inactive) | 44.9 µM (inactive) | > 100 µM (inactive) | > 100 µM (inactive) |  | > 100 µM (inactive) |
| CCN(CC)/[N+]([O-])=N/OCC(C)O (configuration not stated) | > 100 µM (inactive) | > 100 µM (inactive) | > 100 µM (inactive) | > 100 µM (inactive) | > 100 µM (inactive) | > 100 µM (inactive) | > 100 µM (inactive) | > 100 µM (inactive) | > 100 µM (inactive) | > 100 µM (inactive) | > 100 µM (inactive) | > 100 µM (inactive) | > 100 µM (inactive) | > 100 µM (inactive) | > 100 µM (inactive) |
| CC1CCC[P+](Cc2ccccc2)(c2ccccc2)CC1 (configuration not stated) | > 100 µM (inactive) | > 100 µM (inactive) | > 100 µM (inactive) | 29.1 µM (inactive) |  | 35.9 µM (inactive) | 27.2 µM (inactive) | > 100 µM (inactive) | 21.6 µM (inactive) | 46.5 µM (inactive) | 40.3 µM (inactive) | 94.4 µM (inactive) | 77.4 µM (inactive) |  | 25 µM (inactive) |
| O=C(O/C(=C(/N=N/c1ccccc1)c1ccccc1)c1ccccc1)c1ccccc1 | > 100 µM (inactive) | > 100 µM (inactive) | > 100 µM (inactive) | > 100 µM (inactive) | > 100 µM (inactive) |  | > 100 µM (inactive) | > 100 µM (inactive) | > 100 µM (inactive) | > 100 µM (inactive) | 87.3 µM (inactive) | > 100 µM (inactive) | > 100 µM (inactive) | > 100 µM (inactive) | > 100 µM (inactive) |
| CCCN(CCCC(NC(C)=O)C(=O)NCc1ccccc1)C(=O)N(C)N=O (configuration not stated) | > 100 µM (inactive) | > 100 µM (inactive) | > 100 µM (inactive) | > 100 µM (inactive) | > 100 µM (inactive) | > 100 µM (inactive) | > 100 µM (inactive) | > 100 µM (inactive) | > 100 µM (inactive) |  | 41.3 µM (inactive) | > 100 µM (inactive) | > 100 µM (inactive) | > 100 µM (inactive) | > 100 µM (inactive) |
| Cc1ccc(NC(=O)C(=O)Cc2cc[n+]([O-])cc2)cc1 | > 100 µM (inactive) | > 100 µM (inactive) | > 100 µM (inactive) | > 100 µM (inactive) | > 100 µM (inactive) | > 100 µM (inactive) | > 100 µM (inactive) | > 100 µM (inactive) | > 100 µM (inactive) | > 100 µM (inactive) | > 100 µM (inactive) | > 100 µM (inactive) | > 100 µM (inactive) | > 100 µM (inactive) | > 100 µM (inactive) |
| Cc1c2ccccc2c(C)c2c3c(ccc12)C(=O)C=CC3=O | 25.7 µM (inactive) | > 83.9 µM (inactive) | 17.8 µM (inactive) | 35.3 µM (inactive) | 22.5 µM (inactive) | 30 µM (inactive) | 32.3 µM (inactive) | > 100 µM (inactive) | 45.7 µM (inactive) | > 100 µM (inactive) | > 63.5 µM (inactive) | 21.6 µM (inactive) | 52.1 µM (inactive) | 16.3 µM (inactive) | 35.8 µM (inactive) |
| COP(=O)(CC(=O)C1OC(C)(C)OC1C(O)COCc1ccccc1)OC (configuration not stated) | > 100 µM (inactive) | > 100 µM (inactive) | > 100 µM (inactive) | > 100 µM (inactive) | > 100 µM (inactive) | > 100 µM (inactive) | > 100 µM (inactive) | > 100 µM (inactive) | > 100 µM (inactive) |  | > 100 µM (inactive) | > 100 µM (inactive) | > 100 µM (inactive) | > 100 µM (inactive) | > 100 µM (inactive) |
| C=CC/N=C1/N=C(CC(=O)OCC)CS1 | > 100 µM (inactive) | > 100 µM (inactive) | > 100 µM (inactive) | > 100 µM (inactive) | > 100 µM (inactive) | > 100 µM (inactive) | > 100 µM (inactive) | > 100 µM (inactive) | > 100 µM (inactive) | > 100 µM (inactive) | > 100 µM (inactive) | > 100 µM (inactive) | > 100 µM (inactive) | > 100 µM (inactive) | > 100 µM (inactive) |
| O=c1c2ccccc2n2n1CC(O)C2 (configuration not stated) | > 100 µM (inactive) | > 100 µM (inactive) | 2.14 µM (inactive) | > 100 µM (inactive) | > 100 µM (inactive) | > 100 µM (inactive) | > 100 µM (inactive) | > 100 µM (inactive) | > 100 µM (inactive) | > 100 µM (inactive) | > 100 µM (inactive) | > 100 µM (inactive) | > 100 µM (inactive) | > 100 µM (inactive) | 0.641 µM (active) |
| CC(=O)N(C)c1ccc2ncccc2c1[N+](=O)[O-] | > 100 µM (inactive) | > 100 µM (inactive) | > 100 µM (inactive) | > 100 µM (inactive) | > 100 µM (inactive) | > 100 µM (inactive) | > 100 µM (inactive) | > 100 µM (inactive) | > 100 µM (inactive) | > 100 µM (inactive) | > 100 µM (inactive) | > 100 µM (inactive) |  | > 100 µM (inactive) | > 100 µM (inactive) |
| ClC[Si]12OCCN(CCO1)CCO2 | > 100 µM (inactive) | > 100 µM (inactive) | > 100 µM (inactive) | > 100 µM (inactive) | > 100 µM (inactive) |  | > 100 µM (inactive) | > 100 µM (inactive) | > 100 µM (inactive) | > 100 µM (inactive) | > 100 µM (inactive) | > 100 µM (inactive) | > 100 µM (inactive) | > 100 µM (inactive) | > 100 µM (inactive) |
| COc1cc2c(c(OC)c1OC)-c1ccc(SC)c(=O)cc1C(CC(=O)Oc1cccc([N+](=O)[O-])c1)C2 (configuration not stated) | 0.473 µM (active) | 1.16 µM (inactive) | 0.891 µM (active) | 0.161 µM (active) | 0.384 µM (active) | 0.412 µM (active) | 0.78 µM (active) |  | 0.713 µM (active) | 4.62 µM (inactive) | 0.268 µM (active) | 0.4 µM (active) | 0.794 µM (active) | 2.89 µM (inactive) | 0.356 µM (active) |
| Cc1ccc(C)c(NC2=NC(=O)C(CC(=O)Nc3ccc(Cl)cc3Cl)S2)c1 (configuration not stated) | 51.8 µM (inactive) | > 100 µM (inactive) | > 100 µM (inactive) | 46 µM (inactive) |  | > 100 µM (inactive) | 43.8 µM (inactive) | > 100 µM (inactive) | 29.5 µM (inactive) | 48.5 µM (inactive) | 44.7 µM (inactive) | > 100 µM (inactive) | 36.1 µM (inactive) | > 100 µM (inactive) | 28.9 µM (inactive) |
| Cc1c(Cl)cccc1NC(=O)C(=O)C(C(=O)c1ccccc1-c1ccccc1)C1OC(=O)c2ccccc21 (configuration not stated) | 16.6 µM (inactive) | 22.4 µM (inactive) |  | 17.1 µM (inactive) | 12.5 µM (inactive) | 17 µM (inactive) | 14.5 µM (inactive) | 22.5 µM (inactive) | 16.1 µM (inactive) |  | 19.3 µM (inactive) | 21.3 µM (inactive) | 13.5 µM (inactive) | 13.5 µM (inactive) | 17.9 µM (inactive) |
| Cn1c(=O)nc2n(-c3cc(Cl)ccc3Cl)c3ccccc3nc-2c1=O | 8.45 µM (inactive) | 4 µM (inactive) | 0.906 µM (active) | 2.68 µM (inactive) | 4.33 µM (inactive) | 3.63 µM (inactive) | 0.299 µM (active) | 13 µM (inactive) | 5.62 µM (inactive) | 4.67 µM (inactive) | 11.2 µM (inactive) | 2.18 µM (inactive) | 6.4 µM (inactive) | 2.18 µM (inactive) | 1.61 µM (inactive) |
| COc1ccc(/C=C/c2cc(OC)c(OC)c(OC)c2)cc1 | 11.1 µM (inactive) | 7.55 µM (inactive) | 5.98 µM (inactive) | 3.7 µM (inactive) | 2.86 µM (inactive) | 42 µM (inactive) | 5.81 µM (inactive) | 1.85 µM (inactive) | 2.36 µM (inactive) | 13.6 µM (inactive) | 3.43 µM (inactive) | 5.77 µM (inactive) | 2.61 µM (inactive) | > 100 µM (inactive) | 3.25 µM (inactive) |
| C[C@@]12CCCc3coc(c31)C(=O)c1cc3c(cc12)C(=O)C=CC3=O [XESTOQUINONE] | 17 µM (inactive) | 23.7 µM (inactive) | 12.8 µM (inactive) | 28.1 µM (inactive) |  | 16.1 µM (inactive) | 16 µM (inactive) | 22 µM (inactive) | 15.4 µM (inactive) | 43.8 µM (inactive) | 19.3 µM (inactive) | 5.08 µM (inactive) | 31.3 µM (inactive) | 16.2 µM (inactive) | 17.4 µM (inactive) |
